{"source": "patent US20050113410A1", "about": "“Pharmaceutical salts of zafirlukast” (priority 2003, published 2005)", "key": {"[1]": {"details": "cited from earlier work"}, "[2]": {"experiment": "Stability of the crystalline form under aqueous conditions (conversion to neutral form, checked by PXRD)", "type": "physicochemical", "text": "All powder x-ray diffraction patterns were obtained using the D/Max Rapid X-ray Diffractometer (D/Max Rapid, Contact Rigaku/MSC, 9009 New Trails Drive, The Woodlands, Tex., USA 77381-5209) equipped with a copper source (Cu/Kα1.5406 angstroms), manual x-y stage, and 0.3 mm collimator. The sample was loaded into a 0.3 mm boron rich glass capillary tube (e.g., Charles Supper Company, 15 Tech Circle, Natick, Mass. 01760-1024) by sectioning off one end of the tube and tapping the open, sectioned end into a bed of the powdered sample or into the sediment of a slurried precipitate. Note, precipitate can be amorphous or crystalline. The loaded capillary was mounted in a holder that was secured into the x-y stage. A diffractogram was acquired (e.g., Control software: RINT Rapid Control Software, Rigaku Rapid/XRD, version 1.0.0, © 1999 Rigaku Co.) under ambient conditions at a power setting of 46 kV at 40 mA in reflection mode, while oscillating about the omega-axis from 0-5 degrees at 1 degree/s and spinning about the phi-axis at 2 degrees/s. The exposure time was 15 minutes unless otherwise specified. […]"}, "[3]": {"details": "commercially available form (ACCOLATE), neutral molecule; cited from earlier work"}}, "note": "Structures can show the parent of a compound that is named as a salt."}
{"smiles": "COc1cc(C(=O)NS(=O)(=O)c2ccccc2C)ccc1Cc1cn(C)c2ccc(NC(=O)OC3CCCC3)cc12", "note": "[Amorphous neutral zafirlukast]", "values": [{"measurement": "conversion of form in the presence of water", "setting": "[1]", "result": "convert to a monohydrate form"}]}
{"smiles": "COc1cc(C(=O)NS(=O)(=O)c2ccccc2C)ccc1Cc1cn(C)c2ccc(NC(=O)OC3CCCC3)cc12", "note": "[potassium salt of zafirlukast]", "values": [{"measurement": "PXRD diffractogram after exposure to aqueous conditions", "setting": "[2]; after exposure to neutral or acidic aqueous conditions", "result": "remains unchanged"}, {"measurement": "conversion back to the neutral form under aqueous conditions", "setting": "[2]; aqueous conditions, either neutral or acidic", "result": "does not convert back to the neutral form"}]}
{"smiles": "COc1cc(C(=O)NS(=O)(=O)c2ccccc2C)ccc1Cc1cn(C)c2ccc(NC(=O)OC3CCCC3)cc12", "note": "[zafirlukast, 4-(5-cyclopentyloxy-carbonylamino-1-methyl-indol-3-ylmethyl)-3-methoxy-N-o-tolylsulfonylbenzamide]", "values": [{"measurement": "solubility in water", "setting": "[3]", "result": "essentially insoluble in water"}]}
